Reference: ChEMBL document CHEMBL3217751, “Potent inhibition of Ca2+-dependent activation of calpain-1 by novel mercaptoacrylates” (Medchemcomm, 2012)
Calls of active or inactive are those of the source. The calls are words filed in the database; no cut-off is given here.

Key:
[1] = biological target: T1, Calpain-1 catalytic subunit (Sus scrofa, UniProt P35750); assay: Inhibition of Ca2+-dependent activation of porcine calpain-1 using SucLY-AMC as substrate
T1 sequence (P35750 whole entry): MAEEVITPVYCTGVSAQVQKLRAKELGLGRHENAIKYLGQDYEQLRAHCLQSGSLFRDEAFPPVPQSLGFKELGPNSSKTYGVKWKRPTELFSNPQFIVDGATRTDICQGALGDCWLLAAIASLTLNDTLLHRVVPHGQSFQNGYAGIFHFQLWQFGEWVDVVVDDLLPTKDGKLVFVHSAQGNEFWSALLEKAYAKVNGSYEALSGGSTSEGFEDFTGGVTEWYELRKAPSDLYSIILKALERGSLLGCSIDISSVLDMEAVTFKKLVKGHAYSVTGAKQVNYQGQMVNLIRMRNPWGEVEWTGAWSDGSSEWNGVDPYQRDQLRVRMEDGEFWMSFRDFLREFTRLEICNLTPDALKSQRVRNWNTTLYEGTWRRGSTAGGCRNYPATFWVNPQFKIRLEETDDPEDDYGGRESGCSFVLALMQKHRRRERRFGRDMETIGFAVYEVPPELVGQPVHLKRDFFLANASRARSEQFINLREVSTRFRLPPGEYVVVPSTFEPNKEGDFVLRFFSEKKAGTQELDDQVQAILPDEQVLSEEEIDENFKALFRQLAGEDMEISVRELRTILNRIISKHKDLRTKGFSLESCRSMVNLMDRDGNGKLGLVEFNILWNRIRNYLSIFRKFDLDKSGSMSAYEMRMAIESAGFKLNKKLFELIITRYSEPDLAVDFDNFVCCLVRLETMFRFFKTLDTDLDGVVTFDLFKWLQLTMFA

[2] = biological target: T1, Calpain-1 catalytic subunit; assay: Inhibition of Ca2+-dependent activation of porcine calpain-1 using H-K(FAM)-EVYGMMK(DABCYL)-OH as substrate by FRET assay
[3] = biological target: T2, Calpain-1 catalytic subunit (Homo sapiens) (UniProt P07384); assay: Inhibition of calpain-1 in human neutrophils assessed as cell spreading at 10 uM
T2 sequence (whole entry): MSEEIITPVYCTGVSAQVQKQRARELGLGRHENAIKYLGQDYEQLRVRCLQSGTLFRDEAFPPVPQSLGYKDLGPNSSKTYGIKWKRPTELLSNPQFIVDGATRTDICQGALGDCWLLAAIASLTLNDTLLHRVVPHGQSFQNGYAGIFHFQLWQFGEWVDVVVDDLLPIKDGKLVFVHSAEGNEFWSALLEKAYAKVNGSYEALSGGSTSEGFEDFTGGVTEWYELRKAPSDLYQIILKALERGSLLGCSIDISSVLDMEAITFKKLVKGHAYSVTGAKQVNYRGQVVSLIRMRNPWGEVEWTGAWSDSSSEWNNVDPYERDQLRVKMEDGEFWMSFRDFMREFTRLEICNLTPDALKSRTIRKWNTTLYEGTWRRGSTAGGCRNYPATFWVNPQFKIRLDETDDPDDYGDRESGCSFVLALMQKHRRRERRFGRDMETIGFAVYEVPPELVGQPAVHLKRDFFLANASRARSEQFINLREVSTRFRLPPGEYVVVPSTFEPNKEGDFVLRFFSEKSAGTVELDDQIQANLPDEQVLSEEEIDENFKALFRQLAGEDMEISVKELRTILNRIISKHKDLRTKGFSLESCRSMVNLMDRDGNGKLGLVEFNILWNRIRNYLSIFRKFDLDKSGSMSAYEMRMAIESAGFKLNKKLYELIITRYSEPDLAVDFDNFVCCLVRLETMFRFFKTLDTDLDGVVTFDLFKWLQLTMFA

[4] = biological target: T3, Calpain-2 catalytic subunit (Homo sapiens, UniProt P17655); assay: Inhibition of calpain-2 (unknown origin)
T3 sequence (P17655 whole entry): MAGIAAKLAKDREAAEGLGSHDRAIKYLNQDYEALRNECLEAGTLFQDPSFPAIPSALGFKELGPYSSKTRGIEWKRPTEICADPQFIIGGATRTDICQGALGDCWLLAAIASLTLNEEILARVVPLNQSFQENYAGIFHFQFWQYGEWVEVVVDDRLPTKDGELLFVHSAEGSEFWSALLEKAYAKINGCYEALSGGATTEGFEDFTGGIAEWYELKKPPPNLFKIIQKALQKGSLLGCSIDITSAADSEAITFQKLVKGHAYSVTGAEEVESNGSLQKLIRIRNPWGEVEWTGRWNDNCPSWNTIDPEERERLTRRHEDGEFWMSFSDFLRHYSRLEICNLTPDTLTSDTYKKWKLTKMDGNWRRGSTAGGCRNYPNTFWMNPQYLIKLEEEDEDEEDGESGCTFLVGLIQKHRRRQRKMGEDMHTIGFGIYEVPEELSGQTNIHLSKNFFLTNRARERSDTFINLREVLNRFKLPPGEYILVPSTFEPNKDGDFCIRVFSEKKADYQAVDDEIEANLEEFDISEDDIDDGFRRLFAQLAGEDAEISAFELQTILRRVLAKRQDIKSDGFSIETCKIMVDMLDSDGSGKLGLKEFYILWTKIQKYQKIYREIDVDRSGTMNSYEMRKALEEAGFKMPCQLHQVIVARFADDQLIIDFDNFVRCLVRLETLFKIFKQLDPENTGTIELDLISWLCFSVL

[5] = biological target: T4, Calpain-1 catalytic subunit (Homo sapiens, UniProt P07384); assay: Inhibition of human erythrocytes mu-calpain using SLLVY-AMC as substrate after 60 mins
T4 sequence (P07384 whole entry): T2 sequence (whole entry)

SMILES	IC50 [1]	IC50 [2]	inhibition [3]	Ki [4]	Ki [5]
O=C(O)/C(S)=C/c1ccccc1Cl	20700 nM	11900 nM	–	–	–
O=C(O)/C(S)=C/c1ccc(Cl)cc1	15000 nM	2600 nM	–	–	–
O=C(O)/C(S)=C/c1ccc(F)cc1	5600 nM	6900 nM	–	–	–
O=C(O)/C(S)=C/c1cccc(I)c1	23900 nM	4300 nM	–	–	–
O=C(O)/C(S)=C/c1c[nH]c2cccc(F)c12	300 nM	10 nM	–	–	–
O=C(O)/C(S)=C/c1cccc(Br)c1	8400 nM	4000 nM	–	–	–
O=C(O)/C(S)=C/c1c[nH]c2ccc(F)cc12	930 nM	800 nM	–	5330 nM	260 nM
O=C(O)/C(S)=C/c1cccc(Cl)c1	13100 nM	4200 nM	–	–	–
O=C(O)/C(S)=C/c1ccccc1F	23200 nM	21900 nM	–	–	–
O=C(O)/C(S)=C/c1cccc(F)c1	31500 nM	19000 nM	–	–	–
O=C(O)/C(S)=C/c1ccc(Br)cc1	1500 nM	1500 nM	–	–	–
O=C(O)/C(S)=C/c1ccc(I)cc1	5200 nM	2200 nM	–	370 nM	210 nM
O=C(O)/C(S)=C/c1ccccc1Br	9100 nM	21000 nM	–	–	–

Next, values leading:

IC50 [1]	IC50 [2]	inhibition [3]	Ki [4]	Ki [5]	SMILES
90 nM	100 nM	–	–	–	O=C(O)/C(S)=C/c1c[nH]c2ccc(I)cc12
100 nM	210 nM	Active	–	–	O=C(O)/C(S)=C/c1c[nH]c2cc(Cl)ccc12
300 nM	10 nM	Active	–	–	O=C(O)/C(S)=C/c1c[nH]c2cc(F)ccc12
300 nM	170 nM	–	–	–	O=C(O)/C(S)=C/c1c[nH]c2cc(I)ccc12
20 nM	6 nM	–	–	–	O=C(O)/C(S)=C/c1c[nH]c2ccc(Br)cc12
50 nM	250 nM	–	–	–	O=C(O)/C(S)=C/c1c[nH]c2ccc(Cl)cc12
70 nM	2 nM	–	–	–	O=C(O)/C(S)=C/c1c[nH]c2c(Br)cccc12
140 nM	20 nM	–	–	–	O=C(O)/C(S)=C/c1c[nH]c2cccc(Cl)c12
220 nM	90 nM	–	–	–	O=C(O)/C(S)=C/c1c[nH]c2c(I)cccc12
90 nM	7 nM	Active	–	–	O=C(O)/C(S)=C/c1c[nH]c2cc(Br)ccc12
100 nM	6 nM	–	–	–	O=C(O)/C(S)=C/c1c[nH]c2cccc(Br)c12
90 nM	10 nM	–	–	–	O=C(O)/C(S)=C/c1c[nH]c2c(Cl)cccc12
110 nM	120 nM	–	–	–	O=C(O)/C(S)=C/c1c[nH]c2c(F)cccc12
